In publication PMC6277434, “Discovery of a potent HMG-CoA reductase degrader that eliminates statin-induced reductase accumulation and lowers cholesterol” (Nature Communications, 2018):

Assays:
HMGCR [1] = molecular target: T1, HMGCR (Cricetulus griseus, UniProt P00347); assay: Immunoblotting of HMGCR in SRD-15 (Insig-1 and Insig-2-deficient) cells; type: cell-based, Chinese hamster; settings: SRD-15 cells
T1 construct: endogenous in cells; host or cells: CHO-7, CHG, SRD-13A, SRD-15
T1 sequence (P00347 1-887): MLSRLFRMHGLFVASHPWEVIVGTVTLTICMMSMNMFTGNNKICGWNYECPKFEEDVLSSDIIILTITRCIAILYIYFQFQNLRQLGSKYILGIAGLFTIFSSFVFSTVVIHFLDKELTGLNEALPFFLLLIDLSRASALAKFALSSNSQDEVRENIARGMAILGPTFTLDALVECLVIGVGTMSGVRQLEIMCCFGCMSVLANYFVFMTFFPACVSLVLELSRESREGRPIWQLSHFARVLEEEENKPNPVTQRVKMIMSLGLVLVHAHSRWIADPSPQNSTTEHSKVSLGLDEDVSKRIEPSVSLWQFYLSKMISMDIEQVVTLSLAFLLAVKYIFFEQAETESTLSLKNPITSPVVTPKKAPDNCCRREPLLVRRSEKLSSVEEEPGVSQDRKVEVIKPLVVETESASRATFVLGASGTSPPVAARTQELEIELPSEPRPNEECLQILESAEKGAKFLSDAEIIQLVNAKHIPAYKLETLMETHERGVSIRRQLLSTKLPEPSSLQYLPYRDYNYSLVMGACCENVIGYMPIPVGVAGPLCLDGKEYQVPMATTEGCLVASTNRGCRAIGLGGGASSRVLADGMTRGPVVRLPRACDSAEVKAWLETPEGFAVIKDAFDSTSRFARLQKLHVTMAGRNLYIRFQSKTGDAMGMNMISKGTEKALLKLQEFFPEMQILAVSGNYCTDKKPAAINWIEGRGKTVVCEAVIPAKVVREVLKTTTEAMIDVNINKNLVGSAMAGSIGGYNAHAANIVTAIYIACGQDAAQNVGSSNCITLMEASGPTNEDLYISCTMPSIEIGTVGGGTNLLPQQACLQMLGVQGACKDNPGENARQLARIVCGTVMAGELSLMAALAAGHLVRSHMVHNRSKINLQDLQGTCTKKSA
Protocol: CHO-7 (Chinese hamster ovary cell, a clone of CHO-K1 cell line selected for growth in LPDS) and Huh7 (a human hepatocellular carcinoma cell line), SRD-13A (a Scap-deficient CHO-7 cell line) and SRD-15 (an Insig-1 and Insig-2-deficient CHO-7 cell line) were generous gifts from Russell Debose-Boyd at UT Southwestern Medical Center, USA. All cells were grown in a monolayer at 37 °C with 5% CO2. Huh7 cells were maintained in medium A supplemented with 10% FBS. CHO-7 and SRD-15 cells were maintained in medium B supplemented with 5% FBS. SRD-13A cells were maintained in medium B with 5% FBS, 5 μg ml^−1 cholesterol, 1 mM sodium mevalonate, 10 μM sodium oleate. No cell lines used in this study were found in the database of commonly misidentified cell lines that is maintained by ICLAC and NCBI Biosample. […]
Cells were harvested and homogenized in the RIPA buffer (50 mM Tris-HCl, pH 8.0, 150 mM NaCl, 2 mM MgCl2, 1.5% NP-40, 0.1% SDS, and 0.5% sodium deoxycholate) supplemented with protease cocktail inhibitor, 10 μM MG-132, 10 μg ml^−1 leupeptin and 1 mM phenylmethylsulfonyl fluoride. The protein concentrations of lysates were determined using BCA method (Beyotime). […] Western blot images were captured by Amersham Imager 600 (GE Healthcare), and integrated optical intensities of each band were quantified by Image-Pro Plus 6 software (Media Cybernetics). […]

HMGCR [2] = molecular target: T1, HMGCR; assay: Immunoblotting of endogenous HMGCR protein in CHO-7 (or CHG) cells; type: cell-based, Chinese hamster; settings: for endogenous HMGCR protein (immunoblot), mean: DMSO = 100; for HMGCR protein fold change: untreated = 1
Protocol: (§1) CHO-7 (Chinese hamster ovary cell, a clone of CHO-K1 cell line selected for growth in LPDS) and Huh7 (a human hepatocellular carcinoma cell line), SRD-13A (a Scap-deficient CHO-7 cell line) and SRD-15 (an Insig-1 and Insig-2-deficient CHO-7 cell line) were generous gifts from Russell Debose-Boyd at UT Southwestern Medical Center, USA. All cells were grown in a monolayer at 37 °C with 5% CO2. Huh7 cells were maintained in medium A supplemented with 10% FBS. CHO-7 and SRD-15 cells were maintained in medium B supplemented with 5% FBS. SRD-13A cells were maintained in medium B with 5% FBS, 5 μg ml^−1 cholesterol, 1 mM sodium mevalonate, 10 μM sodium oleate. No cell lines used in this study were found in the database of commonly misidentified cell lines that is maintained by ICLAC and NCBI Biosample. The cell lines have not been authenticated recently. No test for mycoplasma contamination was performed.
(§2) Cells were harvested and homogenized in the RIPA buffer (50 mM Tris-HCl, pH 8.0, 150 mM NaCl, 2 mM MgCl2, 1.5% NP-40, 0.1% SDS, and 0.5% sodium deoxycholate) supplemented with protease cocktail inhibitor, 10 μM MG-132, 10 μg ml^−1 leupeptin and 1 mM phenylmethylsulfonyl fluoride. The protein concentrations of lysates were determined using BCA method (Beyotime). Samples were mixed with the membrane protein solubilization buffer (62.5 mM Tris-HCl, pH 6.8, 15% SDS, 8 M urea, 10% glycerol, and 100 mM DTT) plus the 4× loading buffer (150 mM Tris-HCl, pH 6.8, 12% SDS, 30% glycerol, 6% 2-mercaptoethanol, and 0.02% bromophenol blue) and incubated for 30 min at 37 °C. Proteins were resolved by SDS-PAGE and transferred to nitrocellulose membranes (GE Healthcare). Immnoblots were blocked with 5% non-fat milk in TBS containing 0.075% Tween-20 (TBST) and probed with indicated antibodies overnight at 4 °C. After washing in TBST for five times, blots were incubated with HRP-conjugated secondary antibodies for 2 h at room temperature. Immunoreactivity was developed with Clarity Western ECL chemiluminescent substrates (170–5061, Bio-Rad). Western blot images were captured by Amersham Imager 600 (GE Healthcare), and integrated optical intensities of each band were quantified by Image-Pro Plus 6 software (Media Cybernetics). Uncropped blots are shown in Supplementary Figs. 9–13.

HMGCR [3] = molecular target: T1, HMGCR; assay: Immunoblotting of HMGCR protein in SRD-13A (Scap-deficient CHO-7) cells; type: cell-based, Chinese hamster; settings: for HMGCR protein level, mean: SRD-13A, 16 h
Protocol: as §1, §2

WT HMGCR = molecular target: T2, WT HMGCR (Cricetulus griseus, UniProt P00347); assay: Immunoblotting of overexpressed wild type HMGCR in Huh7 cells; type: cell-based; settings: 1 µM lovastatin
T2 construct: expressed in transfected cells; host or cells: Huh7
T2 sequence (P00347 1-887): T1 sequence (P00347 1-887)
Protocol: as §2, with “Uncropped blots are shown in Supplementary Figs. 9–13.” left out
RT-qPCR. Quantifications of the relative mRNA levels of indicated SREBP target […]

C=CCC(O)(CC=C)CCCC(C)C1CCC2C3C(O)C=C4C(C)(C)C(O)CCC4(C)C3CCC12C (stereo not shown) [Cmpd 81]
Cmpd 81-induced disappearance of endogenous HMGCR in cells lacking Insig-1 and Insig-2 (HMGCR [1]): completely abolished | endogenous HMGCR protein (immunoblot), mean (HMGCR [2]; CHO-7, 0.01 uM, 16 h): 96.5896 | endogenous HMGCR protein (immunoblot), mean (HMGCR [2]; CHO-7, 0.03 uM, 16 h): 105.12 | endogenous HMGCR protein (immunoblot), mean (HMGCR [2]; CHO-7, 0.1 uM, 16 h): 84.2505 | endogenous HMGCR protein (immunoblot), mean (HMGCR [2]; CHO-7, 0.3 uM, 16 h): 66.4121 | endogenous HMGCR protein (immunoblot), mean (HMGCR [2]; CHO-7, 1 uM, 16 h): 9.931 | endogenous HMGCR protein (immunoblot), mean (HMGCR [2]; CHO-7, 3 uM, 16 h): 3.826 | HMGCR degradation induced by Cmpd 81 on addition of proteasome inhibitor MG-132 (HMGCR [2]; CHO-7, 10 μM MG-132, 5 h): completely blocked | endogenous HMGCR protein (immunoblot), mean (HMGCR [2]; CHO-7, 10 uM, 16 h): 1.121 | endogenous HMGCR protein (immunoblot), mean (HMGCR [2]; CHO-7, 20 uM, 16 h): 1.6114 | HMGCR protein fold change (HMGCR [2]; CHO-7, Cmpd 81 1 μM with lovastatin 1 μM): 5.141 | HMGCR protein fold change (HMGCR [2]; CHO-7, Cmpd 81 1 μM, without lovastatin): 0.3231 | HMGCR protein fold change (HMGCR [2]; CHO-7, Cmpd 81 3 μM with lovastatin 1 μM): 1.706 | HMGCR protein fold change (HMGCR [2]; CHO-7, Cmpd 81 3 μM, without lovastatin): 0.1204 | HMGCR protein fold change (HMGCR [2]; CHO-7, Cmpd 81 10 μM with lovastatin 1 μM): 0.399 | reduction in HMGCR (HMGCR [2]; CHO-7 cells, 1 μM, 16 h): more than 80% | EC50 (HMGCR [2]; CHO-7 cells, 16 h, read-out: EC50 to decrease endogenous HMGCR (dose–response immunoblotting)): 390 nM | HMGCR protein induced by simvastatin, pravastatin, fluvastatin, atorvastatin and rosuvastatin (HMGCR [2]; cultured cells): similarly reduced

CC[C@H](C)C(=O)O[C@H]1C[C@@H](C)C=C2C=C[C@H](C)[C@H](CC[C@@H]3C[C@@H](O)CC(=O)O3)[C@H]21 [Lovastatin, lovastatin]
increase of HMGCR protein (HMGCR [3]; SRD-13A cells, lovastatin 16 h): ≤ 8 fold | HMGCR protein level, mean (HMGCR [3]; lovastatin 0.001 uM): 0.9418 | HMGCR protein level, mean (HMGCR [3]; lovastatin 0.003 uM): 1.178 | HMGCR protein level, mean (HMGCR [3]; lovastatin 0.01 uM): 2.758 | HMGCR protein level, mean (HMGCR [3]; lovastatin 0.03 uM): 4.962 | HMGCR protein level, mean (HMGCR [3]; lovastatin 0.1 uM): 7.087 | HMGCR protein level, mean (HMGCR [3]; lovastatin 0.3 uM): 7.139 | HMGCR protein level, mean (HMGCR [3]; lovastatin 1 uM): 8.174 | HMGCR protein level, mean (HMGCR [3]; lovastatin 3 uM): 8.262 | HMGCR protein level, mean (HMGCR [3]; lovastatin 10 uM): 7.249 | elevation of overexpressed WT HMGCR protein (WT HMGCR): 6 fold | HMGCR protein level, mean (HMGCR [2]; CHO-7, lovastatin 0.001 uM, 16 h, DMSO = 1): 1.706 | HMGCR protein level, mean (HMGCR [2]; CHO-7, lovastatin 0.003 uM, 16 h, DMSO = 1): 2.872 | HMGCR protein level, mean (HMGCR [2]; CHO-7, lovastatin 0.01 uM, 16 h, DMSO = 1): 6.395 | HMGCR protein level, mean (HMGCR [2]; CHO-7, lovastatin 0.03 uM, 16 h, DMSO = 1): 10.2955 | HMGCR protein level, mean (HMGCR [2]; CHO-7, lovastatin 0.1 uM, 16 h, DMSO = 1): 11.6269 | HMGCR protein level, mean (HMGCR [2]; CHO-7, lovastatin 0.3 uM, 16 h, DMSO = 1): 13.3691 | HMGCR protein fold change (HMGCR [2]; CHO-7, lovastatin 1 μM alone): 16.2295 | HMGCR protein level, mean (HMGCR [2]; CHO-7, lovastatin 1 uM, 16 h, DMSO = 1): 14.123 | HMGCR protein level, mean (HMGCR [2]; CHO-7, lovastatin 3 uM, 16 h, DMSO = 1): 14.7817 | HMGCR protein level, mean (HMGCR [2]; CHO-7, lovastatin 10 uM, 16 h, DMSO = 1): 14.2587 | increase of HMGCR protein (maximum increment) (HMGCR [2]; CHO-7 cells, statin 16 h, DMSO = 1): ~ 15 fold
